A short description of data set [1]: Storage stability (hydrolysis) of cabergoline in 12205-1, HPLC. The class given is physicochemical. Conditions: room temperature, 40° C. and 50° C., FIG. 1b. The method, then:
0.0056 g of cabergoline was weighed in a vial. […] The mixture was vortexed well and then sonicated for 30 minutes. The suspension was filtered through a 0.2μ acrodisc. The filtrate was split into 3 vials. The vials were stored at room temperature ("RT"), 40° C. and 50° C. The vial stored at room temperature was wrapped in aluminum foil. 100 μL of sample was withdrawn as a function of time. 1 mL of pH 3.0 phosphate buffer was added to the sample and vortexed. The supernatant was taken and analyzed by HPLC as described above.

Data set [2] in a line: physchem. The settings on record: organic solvent or mixture.
Protocol: 0.00471 grams ("g") of cabergoline was added to 1 milliter ("mL") of perfluorooctanol (PFO). The suspension was sonicated for 15 minutes and then filtered through a 0.45μ filter. 100 microliters ("μL") of the filtrate was extracted with 1 mL of phosphate buffer (pH 3.0). 10 μL of the aqueous portion was analyzed for cabergoline by injecting in onto the HPLC. The mobile phase was made as follows:
5.2 mL of concentrated phosphoric acid, 6.0 mL of tetrabutyl ammonium hydroxide, and 6.612 g of dibasic ammonium phosphate were added to 1500 mL of deionized water. The mixture was stirred until it formed a clear solution. To the above solution 1800 mL of acetonitrile, 400 mL of tetrahydrofuran and sufficient water were added to make 4 liters of mobile phase. The mobile phase was pumped at 1.5 mL/minute through a cyano column. The eluent was monitored at 280 nanometers ("nm").
0.00126 g of cabergoline was added to 1 mL of perfluoro-2-methyl-oxahexanoic acid, methyl ester ("12205-1"). The suspension was sonicated for 15 minutes and then filtered through a 0.45μ filter. 100 μL of the filtrate was extracted with 1 mL of phosphate buffer (pH 3.0). 10 μL of the aqueous portion was analyzed for cabergoline by injecting it onto the HPLC.
Data set [3] can be described thus: physchem. Conditions: perfluorooctanol, organic solvent or mixture.
Protocol: (§1) 0.01847 g of leflunomide was added to 1 mL of perfluorooctanol ("PFO"). The suspension was sonicated for 15 minutes. The suspension was filtered through a 0.45μ filter and 100 μL of the filtrate was extracted with 1 mL of the mobile phase for leflunomide. The mobile phase consisted of 40:60 of acetonitrile: 0.01m NaH2 PO4 adjusted to pH 7.0. 10 μL of the extract was injected on to a C-18 reverse phase column. The sample was eluted with the mobile phase with a flow rate of 2 mL/minute and monitored at 254 nm.
(§2) 0.00207 g of leflunomide was added to 1 mL of perfluoro-2-methyl-oxahexanoic acid, methyl ester (12205-1). The suspension was filtered through a 0.45μ filter and 100 μL of the filtrate was extracted with 1 mL of the mobile phase of leflunomide. 10 μL of the extract was injected on to HPLC to determine the solubility of leflunomide.
Data set [4] in a line: Storage stability (hydrolysis) of leflunomide in 12205-1, HPLC. The class given is physicochemical. The settings on record: 60° C. in an oven, FIG. 2b. The method, then:
The suspension was filtered and the filtrate was put on stability testing at 60° C. in an oven. 100 μL of sample was withdrawn as a function of time. The vehicle was evaporated and the residual sample was reconstituted in 1 mL of the mobile phase for leflunomide. The sample was analyzed by HPLC to determine the leflunomide content. […] The composition is therefore expected to be stable during storage.

A short description of data set [5]: Solubility of leflunomide in fluoroalkyl hydrocarbon vehicle (filtration, extraction into mobile phase, HPLC). The settings on record: 12205-1 perfluoro ester, organic solvent or mixture.
Protocol: as §1, §2
Data set [6] in a line: Solubility of betaxolol and dipivefrin, dissolved together, in 12205-1 (extraction into pH 3.0 phosphate buffer, reverse phase HPLC). Conditions: 12205-1 perfluoro ester, organic solvent or mixture.
Data set [7] in a line: Solubility of dipivefrin in 12205-1 (excess drug stirred 30 minutes, filtered, extracted with pH 3.0 phosphate buffer). Type of data set: physicochemical. The settings on record: 12205-1 perfluoro ester, organic solvent or mixture, vehicle 12205-1, excess dipivefrin alone, 0.2μ filter. Here is the method:
The solution was filtered through a 0.2μ filter and 100 μl of the sample was extracted with phosphate buffer (pH 3.0). The aqueous portion was analyzed for dipivefrin.

A short description of data set [8]: physchem. The settings on record: 12205-1 perfluoro ester, organic solvent or mixture.

SMILES strings stand for the structures. In brackets after ≈: the same amount, converted by molar mass. Bounds are passed on as bounds.

As usually defined, the solubility is the concentration that dissolves in the medium under given conditions. As to `C=CCN1C[C@H](C(=O)N(CCCN(C)C)C(=O)NCC)C[C@@H]2c3cccc4[nH]cc(c34)C[C@H]21` [cabergoline], the “hydrolysis of cabergoline on storage” value in data set [1] is listed as “no hydrolysis”. Besides, the solubility worked out at 1040 µg/mL (≈ 2290 µM) in “physchem [2]” (12205-1 perfluoro ester) and 2700 µg/mL (≈ 5980 µM) in the data set “physchem [2]” (perfluorooctanol).

Turning to `Cc1oncc1C(=O)Nc1ccc(C(F)(F)F)cc1` [leflunomide], the figures for the solubility (in “physchem [3]”; in data set [5]) were 2000 µg/mL (≈ 7400 µM) and 238 µg/mL (≈ 881 µM), respectively. Also, in data set [4], the “hydrolysis of leflunomide on storage” value is “no hydrolysis”.

`CNCC(O)c1ccc(OC(=O)C(C)(C)C)c(OC(=O)C(C)(C)C)c1` (stereo not drawn) [dipivefrin]: the solubility in data set [6] is greater than 1000 µg/mL. The solubility at 0.5 h in data set [7] is greater than 1000 µg/mL.

`CC(C)NCC(O)COc1ccc(CCOCC2CC2)cc1` (stereo not drawn) [betaxolol]: in the data set “physchem [8]”, the solubility was greater than 1000 µg/mL.
